Experimental findings from PubChem BioAssay (NCI) are described below.

SMILES strings stand for the structures.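 Assay format: 96-well plates, 48-hour exposure. The concentration for 50% growth inhibition is given as GI50. At the TGI there is no net growth.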 Some results are limits rather than exact numbers.

Among the test systems are A549 NSCLC; COLO 205 colon; HCT-15 colon; HOP-62 NSCLC; NCI-H522 lung; SF-295 CNS; SK-MEL-2 melanoma; SN12C renal; SNB-19 CNS; HCT-116 colon.
Test in all cases: NCI-60 cell line screen, 48 h

Turning to `COc1ccc(S(=O)(=O)NNS(C)(=O)=O)cc1OC`, the TGI in the assay with A549 NSCLC, in the assay with COLO 205 colon, with HCT-15 colon, in the assay on HOP-62 NSCLC, with NCI-H522 lung and in the assay with SF-295 CNS was more than 100 µM in each case. Also, the TGI in the assay with SK-MEL-2 melanoma, in the assay on SN12C renal and with SNB-19 CNS was more than 100 µM throughout.

For the compound `Cc1ccc(/C=C2\CCCC(C(NO)c3ccc(C)cc3)C2=NO)cc1` (stereo not drawn), the TGI is more than 100 µM in the assay with A549 NSCLC; 38.5 µM with COLO 205 colon; more than 100 µM in the assay with HCT-116 colon; more than 100 µM in the assay on HCT-15 colon; more than 100 µM with HOP-62 NSCLC; 76.1 µM in the assay on NCI-H522 lung. Moreover, the TGI with SK-MEL-2 melanoma was more than 100 µM; in the assay on SN12C renal, 38.8 µM; with SNB-19 CNS it was more than 100 µM.

In the case of `Cc1ccc(-n2cc(/C(N)=N/O)c3ccccc3c2=O)cc1`, the TGI in the assay with A549 NSCLC, in the assay with COLO 205 colon, in the assay with HCT-116 colon, with HCT-15 colon, with HOP-62 NSCLC and with NCI-H522 lung was more than 100 µM throughout. In addition, the TGI in the assay with SF-295 CNS, in the assay on SN12C renal and with SNB-19 CNS was more than 100 µM each time.

For `O=C(N[C@H]1CC2(C=C(I)C(=O)C(I)=C2)OC1=O)OCc1ccccc1`, the TGI in the assay on A549 NSCLC was more than 100 µM; in the assay on COLO 205 colon it was 28.1 µM; in the assay on HCT-116 colon, 29.6 µM; in the assay with HCT-15 colon it was 44.2 µM; in the assay on HOP-62 NSCLC, 45.6 µM; with NCI-H522 lung, 26.2 µM. Also, the TGI worked out at 37.3 µM with SF-295 CNS, 32.3 µM in the assay with SN12C renal and 47.6 µM in the assay on SNB-19 CNS.

Turning to `O=S1(=O)CS(=O)(=O)OCCCCCO1`, the TGI in the assay on A549 NSCLC, with COLO 205 colon, in the assay on HCT-116 colon, in the assay on HCT-15 colon, in the assay with NCI-H522 lung and in the assay on SK-MEL-2 melanoma was more than 100 µM each time. Also, the TGI with SN12C renal and with SNB-19 CNS was more than 100 µM in each case.

`COc1ccc(N=C2C(=O)Nc3ccc(Br)cc32)cc1`: the TGI in the assay with A549 NSCLC is more than 100 µM; in the assay on COLO 205 colon, 34.6 µM; with HCT-116 colon, 35.2 µM; in the assay with HCT-15 colon, 44 µM; with HOP-62 NSCLC it was 88.4 µM; in the assay with NCI-H522 lung, 24.9 µM. Besides, the figures for the TGI in the assay on SF-295 CNS, in the assay with SN12C renal and in the assay on SNB-19 CNS were more than 100 µM, 40.1 µM and more than 100 µM, respectively.

Regarding `O=C(Nc1c(Cl)cc([N+](=O)[O-])cc1Cl)C(=O)C(C(=O)c1ccncc1)C1OC(=O)c2ccccc21` (stereo not drawn), the TGI in the assay on A549 NSCLC, in the assay with COLO 205 colon, in the assay with HCT-116 colon, in the assay on HCT-15 colon, in the assay on HOP-62 NSCLC and with NCI-H522 lung was more than 100 µM each time. In addition, the TGI in the assay on SF-295 CNS, with SN12C renal and in the assay on SNB-19 CNS was more than 100 µM each time.

`Cc1c(C(=O)/C=C/c2ccc3c(c2)OCO3)[n+](=O)c2ccccc2n1[O-]`: the TGI in the assay with A549 NSCLC is more than 100 µM; in the assay with COLO 205 colon it was 78.7 µM; in the assay on HCT-116 colon, 75.1 µM; in the assay on HOP-62 NSCLC, more than 100 µM; in the assay on NCI-H522 lung it was 36.9 µM; with SF-295 CNS, 95.7 µM. The TGI in the assay with SN12C renal and with SNB-19 CNS was more than 100 µM throughout.

`CCOC(=O)c1cnc2c(ccc3ncccc32)c1OCC`: the TGI in the assay with A549 NSCLC, with COLO 205 colon, with HCT-116 colon, in the assay on HCT-15 colon, in the assay on HOP-62 NSCLC and in the assay on NCI-H522 lung was more than 100 µM throughout. The TGI with SK-MEL-2 melanoma, in the assay on SN12C renal and in the assay on SNB-19 CNS was more than 100 µM in each case.

With `COc1cc2ccc(CC(=O)O)cc2cc1OC`, the TGI in the assay with A549 NSCLC, in the assay on COLO 205 colon, in the assay on HCT-116 colon, in the assay on HCT-15 colon, in the assay with HOP-62 NSCLC and with NCI-H522 lung was more than 100 µM each time. Further, the TGI in the assay with SK-MEL-2 melanoma, in the assay on SN12C renal and with SNB-19 CNS was more than 100 µM throughout.

With `c1ccc(-c2nc3ccccc3[nH]2)c(OCCCCCOc2ccccc2-c2nc3ccccc3[nH]2)c1`, the GI50 in the assay on COLO 205 colon is 8.49 µM; in the assay on HCT-116 colon it was 1.64 µM; in the assay on HCT-15 colon it was 4.64 µM; in the assay on HOP-62 NSCLC, 22.1 µM; with NCI-H522 lung, 5.46 µM; in the assay with SF-295 CNS, 15.3 µM. In addition, the GI50 in the assay with SK-MEL-2 melanoma is 8.96 µM; with SN12C renal it was 8.55 µM; in the assay on SNB-19 CNS it was 14.4 µM. Moreover, the TGI was found to be 31.9 µM with COLO 205 colon; 3.24 µM in the assay with HCT-116 colon; 18.4 µM in the assay with HCT-15 colon; 52.5 µM in the assay on HOP-62 NSCLC; 39.1 µM in the assay with NCI-H522 lung; 41.2 µM in the assay with SF-295 CNS. Also, the TGI turned out to be 24.6 µM in the assay with SK-MEL-2 melanoma, 24.5 µM in the assay on SN12C renal and 31.9 µM with SNB-19 CNS.

Turning to `CCOc1ccc(N=Nc2c(-c3ccccc3)nn(C(=O)CC(=O)Nc3ccccc3Cl)c2-c2ccccc2)cc1`, the TGI with A549 NSCLC, in the assay with COLO 205 colon, in the assay with HCT-116 colon, in the assay with HOP-62 NSCLC, in the assay on NCI-H522 lung and in the assay on SF-295 CNS was more than 100 µM throughout. Further, the TGI in the assay on SK-MEL-2 melanoma, in the assay on SN12C renal and in the assay on SNB-19 CNS was more than 100 µM throughout.

Regarding `COc1ccc(C2NC(c3ccc(OC)cc3)C(C)C(=O)C2C)cc1` (stereo not drawn), the TGI in the assay with COLO 205 colon, in the assay with HCT-116 colon, in the assay with HCT-15 colon, with HOP-62 NSCLC, in the assay with NCI-H522 lung and in the assay with SF-295 CNS was more than 100 µM each time. In addition, the TGI with SK-MEL-2 melanoma, in the assay on SN12C renal and in the assay with SNB-19 CNS was more than 100 µM in each case.

For the compound `COC(=O)C1C(=O)NC2(C)CC1c1ccccc1O2` (stereo not drawn), the TGI was more than 100 µM in the assay with A549 NSCLC; more than 100 µM in the assay on HCT-116 colon; more than 100 µM with HCT-15 colon; more than 10 µM with HOP-62 NSCLC; more than 100 µM in the assay on NCI-H522 lung; more than 100 µM in the assay with SF-295 CNS. Besides, the TGI in the assay with SK-MEL-2 melanoma, in the assay on SN12C renal and in the assay on SNB-19 CNS was more than 100 µM throughout.
